Data: US20230028658A1, “EXPANDED DOSAGE REGIMENS FOR INTEGRIN INHIBITORS” (Pliant Therapeutics, Inc., priority 2021, published 2023)
Where two headings read alike, the source gives them in different places.

Experiments:
[1] = tested on: IPF-derived human lung fibroblasts; test: LAP adhesion binding assay, IPF-derived human lung fibroblasts (xCELLigence cell index); type: cell-based; conditions: FIG. 3B, adhesion to LAP
Procedure: Two latency associated peptide (LAP) adhesion binding assays were devised using primary human lung cells, including normal (healthy) human bronchial epithelial cells and human lung fibroblasts (healthy and IPF).
Human lung fibroblasts derived from normal and IPF lung tissue are known to express αvβ1 integrin. The IPF-derived human lung fibroblasts were prepared for the assay by dissociation with trypsin/EDTA, and were seeded at 20,000 cells per well on 96 well plates (ACEA Bioscience E-plate View, Acea Biosciences; San Diego, Calif.) previously coated with 5 μg/ml of recombinant human LAP (R&D Systems; Minneapolis, Minn.) and blocked with 4% bovine serum albumin. Cell index (electrical impedance) was measured to assess cell attachment/spreading every 3 minutes for 24 hours at 37° C./5% CO2 using the xCELLigence RTCA MP Instrument (Acea Biosciences; San Diego, Calif.). […] In the assay, the IPF-derived human lung fibroblasts were separately incubated with: the αvβ1-selective small molecule inhibitor; the selective antibody αvβ6 inhibitor, 3G9; and compound 5.

[2] = First-in-human SAD and MAD pharmacokinetics (Example B12); type: in vivo; conditions: plasma, healthy subjects, oral solution, SAD 15-75 mg and MAD 10-40 mg, read-out: calculated half life
Procedure: Healthy human subjects (N=85) were selected for single ascending dose (SAD) and multiple ascending dose (MAD) first-in-human studies. A solution for oral administration was prepared, containing 10 mg/mL of compound 5 in a 50:50 mixture of ORA-SWEET® SF (PERRIGO®, Allegan, Mich.) and sterile water for irrigation. Sufficient solution was administered orally to the subjects to provide between 15 mg/dose and 75 mg/dose of compound 5 in the SAD study and between 10 mg/dose and 40 mg/dose of compound 5 in the MAD study. Concentrations of compound 5 were measured in the subjects by obtaining a sample of plasma from each subject at desired intervals, and subjecting the plasma to liquid chromatography-mass spectrometry-mass spectrometry (LC-MS/MS), with quantification using a calibration curve determined from a range of solutions at standardized concentrations. The lower limit of quantitation (LLOQ) of the assay was 1 ng/mL and the calibration curve range was 1 to 500 ng/mL.

[3] = tested on: COL1A1 expression; test: PCLS from IPF lung tissue, seven days, COL1A1 expression; type: cell-based, human; conditions: PCLS from a single IPF lung tissue sample, Compound 5 200 pM to 1 μM, significant reduction observed ≥2 nM, FIG. 6E
Procedure: PCLS from 5-7 idopathic pulmonary fibrosis (IPF) lung tissue samples were cultured for seven days with one of: DMSO; Compound 5 at 200 nM; nintedanib at 75 nM; pirfenidone at 50 μm; a combination of Compound 5 at 200 nM and nintedanib at 75 nM; a combination of Compound 5 at 200 nM and pirfenidone at 50 μm; or an Alk5 inhibitor at 1 μm. […] FIG. 6D is a bar graph showing relative expression of COL1A1 in precision cut lung slices (PCLS) from idopathic pulmonary fibrosis (IPF) lung tissue upon exposure to Compound 5, clinical standard of care compounds nintedanib (Nin) and pirfenidone (Pirf), and an ALK5 inhibitor, all versus DMSO control.
PCLS from a single IPF lung tissue sample were cultured for seven days with Compound 5 at concentrations of 200 pM, 2 nM, 60 nM, 200 nM, and 1 μM, along with 0.1% DMSO control and an Alk5 inhibitor at 1 μM. […] COL1A1 expression is also graphed for the PCLS in the presence of 0.1% DMSO control, and an Alk5 inhibitor at 1 μM.

[4] = Multiple dose pharmacokinetics (MAD), Example B14; type: in vivo; conditions: human, plasma, oral; for AUC(0-t): read-out: AUC0−24, ng × h/mL; for Tmax: median
Text: Accordingly, a study was designed to assess the PK of Compound 5 after a single dose and following a 6-day course of doses, at levels exceeding the dosages used in preceding Examples B12 and B13. This study was designed to assess at these higher doses aspects of the single-dose and steady-state pharmacokinetics of Compound 5.
(§1) This study was a single-center, randomized, double-blind, ascending dose, placebo-controlled study in healthy participants. Each cohort included 10 participants (8 active, 2 placebo). Study participants received single ascending doses (SAD) of Compound 5 of 120, 160, 240, 320, 480, and 640 mg and multiple ascending doses (MAD) of Compound 5 of 80, 120, 160, 240, and 320 mg. Two cohorts of participants at 160 mg were studied in the MAD phase of the study.
Participants received 7 daily doses of Compound 5 80, 120, 160, 240, and 320 mg. A total of 60 participants were enrolled across the dosing groups, with 48 participants who received Compound 5 available for PK analyses. One participant discontinued study drug prior to completing all study procedures. […] Despite the substantially higher dosages, the PK parameters in the dosing groups were consistent with those observed at lower doses in Example B12. Following multiple doses of Compound 5 (oral solution) ranging from 80 to 320 mg QD, median plasma Compound 5 concentrations reached maximum levels after 3 to 4 hours. Geometric mean T1/2 remained relatively unchanged with increasing dose, ranging from 36 to 55 hours.

[5] = Safety at the higher doses of Examples B14 and B15; type: in vivo, human; conditions: healthy participants, higher doses of Examples B14 and B15 (80-640 mg)
Procedure: as §1
This study was designed as a randomized, double-blind, placebo-controlled study in 48 healthy participants conducted in 2 parts. Part 1 has completed clinical conduct, and Part 2 is ongoing. In Part 1, 24 participants were randomized 1:1:1 to receive Compound 5 80 mg QD, Compound 5 160 mg QD, or placebo QD. A safety review committee reviewed the safety and PK data from Part 1 and recommended doses for Part 2. […] BALF samples were assessed for TGF-β receptor kinase activity (pSMAD2/SMAD2) in pelleted cells (primarily alveolar macrophages) and additional cell material was used to measure TGF-β signaling pathway-related gene expression levels. […] Safety was monitored via open-ended AE inquiry and clinical chemistry, hematology, vital sign, and 12-lead ECG parameters.

[6] = 80 mg daily, Day 7, geometric mean
[7] = 120 mg daily, Day 7, geometric mean
[8] = 160 mg daily, Day 7, two cohorts pooled, geometric mean
[9] = 240 mg daily, Day 7, geometric mean
[10] = 320 mg daily, Day 7, geometric mean

COCCN(CCCCc1ccc2c(n1)NCCC2)CC[C@H](Nc1ncnc2ccccc12)C(=O)O [Compound 5, (S)-4-((2-methoxyethyl) (4-(5,6,7,8-tetrahydro-1,8-naphthyridin-2-yl)butyl)amino)-2-(quinazolin-4-ylamino) butanoic acid]
inhibition of cell adhesion in the IPF-derived lung fibroblasts [1]: substantially inhibited
half-life [2]: 35 to 55 h
reduction in COL1A1 expression at ≥2 nM [3]: ≥ 47%
Cmax [4, 6]: 1850 ng/mL
AUC(0-t) [4, 6]: 19200 ng·h/mL
half-life ([4]; 80 mg daily, Day 7, geometric mean, read-out: T1/2 (converted)): 36.1 h
Tmax ([4]; 80 mg daily, Day 7): 3.5 h
Cmax [4, 7]: 4040 ng/mL
AUC(0-t) [4, 7]: 49400 ng·h/mL
half-life ([4]; 120 mg daily, Day 7, geometric mean, read-out: T1/2 (converted)): 55.4 h
Tmax ([4]; 120 mg daily, Day 7): 4.03 h
Cmax [4, 8]: 3790 ng/mL
AUC(0-t) [4, 8]: 49400 ng·h/mL
half-life ([4]; 160 mg daily, Day 7, two cohorts pooled, geometric mean, read-out: T1/2 (converted)): 41.7 h
Tmax ([4]; 160 mg daily, Day 7, two cohorts pooled): 3 h
Cmax [4, 9]: 5140 ng/mL
AUC(0-t) [4, 9]: 63000 ng·h/mL
half-life ([4]; 240 mg daily, Day 7, geometric mean, read-out: T1/2 (converted)): 50.5 h
Tmax ([4]; 240 mg daily, Day 7): 3 h
Cmax [4, 10]: 5730 ng/mL
AUC(0-t) [4, 10]: 74500 ng·h/mL
half-life ([4]; 320 mg daily, Day 7, geometric mean, read-out: T1/2 (converted)): 46 h
Tmax ([4]; 320 mg daily, Day 7): 3.56 h
half-life ([4]; multiple doses 80 to 320 mg QD, read-out: Geometric mean T1/2): 36 to 55 h
adverse effects [5]: no significant adverse effects
